According to patent US7470715B2, “Estrogen modulators” (Pfizer Inc., priority 2005, dated 2008):
“And” between values parts separate entries of the source, which are not always exact repeats. Equal values may be shown once.

What was measured:
[1] = target: ligand binding domain of the estrogen receptor beta chain (ERβLBD) that contained a point mutation at amino acid residue 418 (pm418) (Homo sapiens, UniProt Q92731); assay: ER agonist cell assay (ERβ), Huh-7 co-transfection, luciferase; format: cell-based; conditions: for EC50: Huh-7 cells co-transfected with pG5luc and ERβLBD(pm418), overnight incubation, luciferase; for ERβ % of Max E2 Response: percent of the maximum estradiol fold change, Huh-7, pG5luc and ERβLBD(pm418)
[2] = tested on: hairless female SKH, 1-hr mice; assay: Animal model for reversal of wrinkles: skin thickness model, topical dosing, skin thickness and hyaluronic acid; format: in vivo, mouse; conditions: three days
Text: Animal Model for Reversal of Wrinkles
Uzuka et al. describes an increase in mouse back skin water content, hyaluronic acid (HA) content, and hyaluronic acid synthetase activity following topical application or subcutaneous injection of estradiol (Biochimica et Biophysica Acta, 627, 199-206, 1980; Biochimica et Biophysica Acta 673, 387-393, 1981). […] Thus, this model may be used to as a preliminary screen to assess the potential for estrogen modulators to alleviate wrinkles in human skin.
The skin thickness model uses hairless female SKH, 1-hr mice. Mice aged to approximately 11 weeks are introduced into the laboratory environment and acclimated for at least 1 week prior to use in the study may be used. Each group typically consisted of 7 animals that may be run in parallel with vehicle and the positive control estradiol. Based on binding and/or cellular assay data, compounds are chosen for screening in this model. Those compounds include the products of Examples, 2, 9, 15, 46, 47, 48, 51, 52, 61, 135, and 137. Prior to topical application to mouse dorsal skin, a sufficient quantity of each compound is dissolved in a solvent generally consisting of ethanol and propylene glycol (70/30% v/v) (vehicle) to achieve the final concentration specified in Table C below. Animals are dosed topically QD or BID, for three days. Each dose consisted of 100 microliters of vehicle or drug applied uniformly to the entire dorsal surface (˜18 cm^2). All animals are sacrificed approximately 18-24 hours after the final dose. Skin thickness (ST) is measured using a caliper. HA is extracted from the skin and quantitated using commercially-available enzyme-linked immunosorbent assays (ELISAs)(HA).
Data are presented as percent of the estradiol response after subtracting out the ST for vehicle-treated mouse skin. The estradiol response is set to 100% and the vehicle resoibse becines 0%.

[3] = target: T1, ligand binding domain of the estrogen receptor alpha chain (ERαLBD) (Homo sapiens, UniProt P03372); assay: ER agonist cell assay (ERα), Huh-7 co-transfection, luciferase; format: cell-based; conditions: for EC50: Huh-7 cells co-transfected with pG5luc and ERαLBD, overnight incubation, luciferase; for ERα % of Max E2 Response: percent of the maximum estradiol fold change, Huh-7, pG5luc and ERαLBD
T1 construct: expressed in transfected cells; host or cells: Huh-7 human hepatoma cells, transient transfection with FuGENE 6
T1 sequence (P03372 311-547 limits assumed): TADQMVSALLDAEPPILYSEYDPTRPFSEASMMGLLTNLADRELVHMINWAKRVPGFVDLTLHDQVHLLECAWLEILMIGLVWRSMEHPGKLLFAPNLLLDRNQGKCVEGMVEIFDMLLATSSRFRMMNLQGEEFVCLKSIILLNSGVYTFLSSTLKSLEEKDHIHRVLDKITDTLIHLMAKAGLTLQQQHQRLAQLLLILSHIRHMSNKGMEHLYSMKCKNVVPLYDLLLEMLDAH

[4] = 1% topical, BID, vehicle 0%, estradiol 100%

Row | Compound | melting point | EC50 [1] | ERβ % of Max E2 Response [1] | EC50 [3] | ERα % of Max E2 Response [3] | other results
1 | CCC(O)C1(c2onc(-c3ccc(O)cc3)c2-c2ccccc2)CC1 (racemic) [Example 47, (±)-4-{5-[1-(1-Hydroxy-propyl)-cyclopropyl]-4-phenyl-isoxazol-3-yl}-phenol] | 175 to 176 °C | 144 nM | 87.4% | 22.4 nM | 92% | HA (hyaluronic acid), percent of the estradiol response [2, 4]: 59%; ST (skin thickness), percent of the estradiol response [2, 4]: 53%
2 | Cl.Oc1ccc(-c2noc(C3(CNc4ccc5c(c4)CCC5)CC3)c2-c2ccccc2)cc1 [Example 23, 4-{5-[1-(Indan-5-ylaminomethyl)-cyclopropyl]-4-phenyl-isoxazol-3-yl}-phenol hydrochloride salt] | 204 to 205 °C | 3860 nM | 5.5% | 559 nM | 21% | 
3 | Cl.Oc1ccc(-c2noc(C3(CN4CCSCC4)CC3)c2-c2ccccc2)cc1 [Example 32, 4-[4-Phenyl-5-(1-thiomorpholin-4-ylmethyl-cyclopropyl)-isoxazol-3-yl]-phenol hydrochloride salt] | 249 to 250 °C | 19.5 nM | 0.999% | 22.9 nM | 38.5% | 
4 | Oc1ccc(-c2noc(C3CC3)c2-c2ccccc2)cc1 [Example 35, 4-(5-Cyclopropyl-4-phenyl-isoxazol-3-yl)-phenol] | 197 to 200 °C | 130 nM | 5.78% | 171 nM | 25% | 
5 | CC[C@@H](O)C1(c2onc(-c3ccc(O)cc3)c2-c2ccccc2)CC1 [Example 48, (R)-(−)-4-{5-[1-(1-Hydroxy-propyl)-cyclopropyl]-4-phenyl-isoxazol-3-yl}-phenol] | 163 to 164 °C | 84.7 nM | 71.8% | 31.3 nM | 88.8% | HA (hyaluronic acid), percent of the estradiol response ([2]; 0.03% topical, BID): 26%; ST (skin thickness), percent of the estradiol response ([2]; 0.03% topical, BID): 33%; HA (hyaluronic acid), percent of the estradiol response ([2]; 0.03% topical, QD): 18%; ST (skin thickness), percent of the estradiol response ([2]; 0.03% topical, QD): 13%; HA (hyaluronic acid), percent of the estradiol response ([2]; 0.1% topical, BID): 63%; ST (skin thickness), percent of the estradiol response ([2]; 0.1% topical, BID): 58%; HA (hyaluronic acid), percent of the estradiol response ([2]; 0.1% topical, QD): 32%; ST (skin thickness), percent of the estradiol response ([2]; 0.1% topical, QD): 29%; HA (hyaluronic acid), percent of the estradiol response ([2]; 0.3% topical, BID): 96%; ST (skin thickness), percent of the estradiol response ([2]; 0.3% topical, BID): 80%; HA (hyaluronic acid), percent of the estradiol response ([2]; 0.3% topical, QD): 41%; ST (skin thickness), percent of the estradiol response ([2]; 0.3% topical, QD): 57%; HA (hyaluronic acid), percent of the estradiol response ([2]; 0.5% topical, BID): 84%; ST (skin thickness), percent of the estradiol response ([2]; 0.5% topical, BID): 78%; ST (skin thickness), percent of the estradiol response [2, 4]: 72% and 89%; HA (hyaluronic acid), percent of the estradiol response ([2]; 1% topical, QD): 47% and 42%; ST (skin thickness), percent of the estradiol response ([2]; 1% topical, QD): 64% and 41%
6 | CC(C)COC(=O)C1(c2onc(-c3ccc(O)cc3)c2-c2ccccc2)CC1 [Example 60, 1-[3-(4-Hydroxy-phenyl)-4-phenyl-isoxazol-5-yl]-cyclopropanecarboxylic acid isobutyl ester] | 109 to 110 °C | > 10000 nM | >3.71% | 12.9 nM | 23.3% | 

Second part, led by results:

Row | melting point | EC50 [1] | ERβ % of Max E2 Response [1] | EC50 [3] | ERα % of Max E2 Response [3] | Compound | other results
7 | 210 to 211 °C |  |  |  |  | OCC1(c2onc(-c3ccc(O)cc3)c2-c2ccccc2)CC1 [Example 2, 4-[5-(1-Hydroxymethyl-cyclopropyl)-4-phenyl-isoxazol-3-yl]-phenol] | HA (hyaluronic acid), percent of the estradiol response ([2]; 1% topical, QD): 15%; ST (skin thickness), percent of the estradiol response ([2]; 1% topical, QD): 19%
8 | 219 to 221 °C | 43.2 nM | 99.7% | 33.1 nM | 106% | C[C@@H](O)C1(c2onc(-c3ccc(O)cc3)c2-c2ccccc2)CC1 [Example 46, (R)-(−)-4-{5-[1-(1-Hydroxy-ethyl)-cyclopropyl]-4-phenyl-isoxazol-3-yl}-phenol] | HA (hyaluronic acid), percent of the estradiol response ([2]; 0.015% topical, BID): 11%; ST (skin thickness), percent of the estradiol response ([2]; 0.015% topical, BID): 20%; HA (hyaluronic acid), percent of the estradiol response ([2]; 0.05% topical, BID): 52%; ST (skin thickness), percent of the estradiol response ([2]; 0.05% topical, BID): 47%; HA (hyaluronic acid), percent of the estradiol response ([2]; 0.15% topical, BID): 55%; ST (skin thickness), percent of the estradiol response ([2]; 0.15% topical, BID): 65%; HA (hyaluronic acid), percent of the estradiol response ([2]; 0.5% topical, BID): 39% and 68% and 76%; ST (skin thickness), percent of the estradiol response ([2]; 0.5% topical, BID): 53% and 71% and 73%; HA (hyaluronic acid), percent of the estradiol response ([2]; 1% topical, QD): 48%; ST (skin thickness), percent of the estradiol response ([2]; 1% topical, QD): 36%
9 | 212 to 213 °C | 23.6 nM | 36.7% | 159 nM | 94.6% | CC(C)(O)C1(c2onc(-c3ccc(O)cc3)c2-c2ccccc2)CC1 [Example 49, 4-{5-[1-(1-Hydroxy-1-methyl-ethyl)-cyclopropyl]-4-phenyl-isoxazol-3-yl}-phenol] | 
10 | 118 to 119 °C |  | 1% | 124 nM | 80.2% | CCC(O)(CC)C1(c2onc(-c3ccc(O)cc3)c2-c2ccccc2)CC1 [Example 50, 4-{5-[1-(1-Ethyl-1-hydroxy-propyl)-cyclopropyl]-4-phenyl-isoxazol-3-yl}-phenol] | 
11 | 169 to 170 °C |  | 0.679% | 38.4 nM | 45.3% | Oc1ccc(-c2noc(C3(C(O)(C4CC4)C4CC4)CC3)c2-c2ccccc2)cc1 [Example 99, 4-{5-(1-(Dicyclopropyl-hydroxy-methyl)-cyclopropyl]-4-phenyl-isoxazol-3-yl}-phenol] | 
